The values that follow come from ChEMBL document CHEMBL4396865, “Current advances of triazole alcohols derived from fluconazole: Design, in vitro and in silico studies” (2019).

What all share (format): functional
In one experiment the test system is Trichophyton rubrum. Briefly: Antifungal activity against Trichophyton rubrum.
A further experiment relates to Kluyveromyces marxianus. Nature of the experiment: Antifungal activity against Candida kefyr.
Another experiment relates to Candida tropicalis. Nature of the experiment: Antifungal activity against Candida tropicalis.
The subject of experiment [1] is Cryptococcus neoformans. Briefly: Antifungal activity against Cryptococcus neoformans.
The test system of the next experiment is Candida parapsilosis. Nature of the experiment: Antifungal activity against Candida parapsilosis.
A further experiment relates to Aspergillus fumigatus. Briefly: Antifungal activity against Aspergillus fumigatus.
Experiment [2] deals with Candida albicans. Briefly: Antifungal activity against Candida albicans.
Experiment [3] has as its system Cryptococcus neoformans. Nature of the experiment: Antifungal activity against Cryptococcus neoformans after 72 hrs by NCCLS protocol based method.
Experiment [4] has as its system Candida albicans. Nature of the experiment: Antifungal activity against Candida albicans after 24 hrs by NCCLS protocol based method.
Setting [5] is: Trichophyton rubrum, read-out: MIC.
Where [6] appears, read: Cryptococcus neoformans, read-out: MIC.
Where [7] appears, read: Lodderomyces parapsilosis, read-out: MIC.

Converted amounts (≈) assume the structure as drawn.

A word on the MIC: it is the lowest concentration found to suppress growth. In the case of `C#CCN(Cc1c(Cl)cccc1Cl)CC(O)(Cn1cncn1)c1ccc(F)cc1F` (stereo unspecified), the MIC with Trichophyton rubrum, in the experiment on Kluyveromyces marxianus, in the experiment on Candida tropicalis, in the experiment on Cryptococcus neoformans [1], against Candida parapsilosis and in the experiment with Aspergillus fumigatus was 0.24 to 250 ng/mL throughout. The MIC against Candida albicans [2] was in the range of 0.24 to 250 ng/mL.

Take `C#CCN(Cc1cccc(C)c1)CC(O)(Cn1cncn1)c1ccc(F)cc1F` (stereo unspecified): the minimal inhibitory concentration (MIC) in the experiment on Trichophyton rubrum, against Kluyveromyces marxianus, against Candida tropicalis, against Cryptococcus neoformans [1], against Candida parapsilosis and against Aspergillus fumigatus was 0.24 to 250 ng/mL in each case. In the experiment on Candida albicans [2], this molecule had a minimum inhibitory concentration (MIC) of 0.24 to 250 ng/mL.

As for `C#CCN(Cc1cccc([N+](=O)[O-])c1)CC(O)(Cn1cncn1)c1ccc(F)cc1F` (stereo unspecified), the MIC in the experiment with Trichophyton rubrum, with Kluyveromyces marxianus, against Candida tropicalis, in the experiment on Cryptococcus neoformans [1], in the experiment on Candida parapsilosis and in the experiment with Aspergillus fumigatus was 0.24 to 250 ng/mL throughout. The same molecule came in with an MIC against Candida albicans [2] of 0.24 to 250 ng/mL.

With `C#CCN(Cc1ccccc1C)CC(O)(Cn1cncn1)c1ccc(F)cc1F` (stereo unspecified), the MIC with Trichophyton rubrum, in the experiment on Kluyveromyces marxianus, with Candida tropicalis, in the experiment on Cryptococcus neoformans [1], with Candida parapsilosis and against Aspergillus fumigatus was 0.24 to 250 ng/mL in each case. In the experiment on Candida albicans [2], this molecule gave an MIC of 0.24 to 250 ng/mL.

On to `C#CCN(Cc1cccc(Br)c1)CC(O)(Cn1cncn1)c1ccc(F)cc1F` (stereo unspecified), for which the MIC against Trichophyton rubrum, with Kluyveromyces marxianus, with Candida tropicalis, in the experiment on Cryptococcus neoformans [1], in the experiment with Candida parapsilosis and in the experiment with Aspergillus fumigatus was 0.24 to 250 ng/mL throughout. In the experiment on Candida albicans [2], this molecule showed an MIC of 0.24 to 250 ng/mL.

Regarding `C#CCN(Cc1cccc(F)c1)CC(O)(Cn1cncn1)c1ccc(F)cc1F` (stereo unspecified), the MIC against Trichophyton rubrum, in the experiment on Kluyveromyces marxianus, in the experiment with Candida tropicalis, against Cryptococcus neoformans [1], in the experiment with Candida parapsilosis and against Aspergillus fumigatus was 0.24 to 250 ng/mL each time. The same molecule came in with a minimal inhibitory concentration (MIC) in the experiment on Candida albicans [2] of 0.24 to 250 ng/mL.

Turning to `CCN(Cc1cn(Cc2ccc(Cl)cc2Cl)nn1)CC(O)(Cn1cncn1)c1ccc(F)cc1F` (stereo unspecified), the MIC in the experiment on Trichophyton rubrum (setting [5]) was determined as 3.9 ng/mL (≈ 7.47 nM).

As to `C#CCN(Cc1ccccc1Br)CC(O)(Cn1cncn1)c1ccc(F)cc1F` (stereo unspecified), the MIC in the experiment with Trichophyton rubrum, with Kluyveromyces marxianus, with Candida tropicalis, in the experiment with Cryptococcus neoformans [1], against Candida parapsilosis and against Aspergillus fumigatus was 0.24 to 250 ng/mL in each case. In the experiment on Candida albicans [2], this molecule came in with an MIC of 0.24 to 250 ng/mL.

A word on the MIC80: it is the lowest concentration that inhibits either 80% of growth or 80% of the strains tested, depending on the study. Higher therefore signals lower susceptibility. On to `O=C1S/C(=C\c2ccoc2)C(=O)N1CC(O)(Cn1cncn1)c1ccc(F)cc1F` (stereo unspecified), for which the MIC80 is 0.12 µM (≈ 0.0519 µg/mL) against Cryptococcus neoformans [3] and 0.03 to 0.15 µM (≈ 0.013 to 0.0649 µg/mL) with Candida albicans [4].

In the case of `C#CCN(Cc1ccccc1)CC(O)(Cn1cncn1)c1ccc(F)cc1F` (stereo unspecified), the minimum inhibitory concentration (MIC) with Trichophyton rubrum, with Kluyveromyces marxianus, in the experiment with Candida tropicalis, against Cryptococcus neoformans [1], against Candida parapsilosis and with Aspergillus fumigatus was 0.24 to 250 ng/mL throughout. This molecule had a minimal inhibitory concentration (MIC) against Candida albicans [2] of 0.24 to 250 ng/mL.

`C#CCN(Cc1ccc(C)cc1)CC(O)(Cn1cncn1)c1ccc(F)cc1F` (stereo unspecified): the MIC with Trichophyton rubrum, against Kluyveromyces marxianus, against Candida tropicalis, against Cryptococcus neoformans [1], with Candida parapsilosis and in the experiment with Aspergillus fumigatus was 0.24 to 250 ng/mL in each case. The minimum inhibitory concentration (MIC) against Candida albicans [2] was in the range of 0.24 to 250 ng/mL.

Regarding `CN(CCOc1ccc(CC2SC(=O)N(CC(O)(Cn3cncn3)c3ccc(F)cc3F)C2=O)cc1)c1ccccn1` (stereo unspecified), the MIC80 turned out to be 13.4 µM (≈ 8 µg/mL) in the experiment on Cryptococcus neoformans [3] and 6.72 µM (≈ 4 µg/mL) in the experiment with Candida albicans [4].

Turning to `C#CCN(Cc1ccc([N+](=O)[O-])cc1)CC(O)(Cn1cncn1)c1ccc(F)cc1F` (stereo unspecified), the minimal inhibitory concentration (MIC) against Trichophyton rubrum, in the experiment with Kluyveromyces marxianus, in the experiment with Candida tropicalis, against Cryptococcus neoformans [1], in the experiment on Candida parapsilosis and in the experiment with Aspergillus fumigatus was 0.24 to 250 ng/mL throughout. This molecule returned a minimal inhibitory concentration (MIC) against Candida albicans [2] of 0.24 to 250 ng/mL.

On to `O=C1S/C(=C\c2ccc(Cl)cc2Cl)C(=O)N1CC(O)(Cn1cncn1)c1ccc(F)cc1F` (stereo unspecified), for which the MIC80 with Cryptococcus neoformans [3] is 0.12 µM (≈ 0.0614 µg/mL); in the experiment with Candida albicans [4], 0.03 to 0.15 µM (≈ 0.0153 to 0.0767 µg/mL).

Take `OC(Cc1cn(Cn2ncc(CC3CCCCC3)n2)nn1)(Cn1cncn1)c1ccc(F)cc1F` (stereo unspecified): the MIC in the experiment with Cryptococcus neoformans [1] (setting [6]) worked out at 0.15 ng/mL (≈ 0.31 nM); in the experiment with Candida parapsilosis (setting [7]) it was 3 ng/mL (≈ 6.2 nM).

Regarding `C#CCN(Cc1ccc(F)cc1)CC(O)(Cn1cncn1)c1ccc(F)cc1F` (stereo unspecified), the MIC in the experiment on Trichophyton rubrum, against Kluyveromyces marxianus, in the experiment on Candida tropicalis, against Cryptococcus neoformans [1], against Candida parapsilosis and against Aspergillus fumigatus was 0.24 to 250 ng/mL throughout. In the experiment with Candida albicans [2], this molecule gave an MIC of 0.24 to 250 ng/mL.

For `C#CCN(Cc1ccc(Cl)cc1Cl)CC(O)(Cn1cncn1)c1ccc(F)cc1F` (stereo unspecified), the MIC in the experiment on Trichophyton rubrum, against Kluyveromyces marxianus, against Candida tropicalis, in the experiment on Cryptococcus neoformans [1], in the experiment on Candida parapsilosis and in the experiment with Aspergillus fumigatus was 0.24 to 250 ng/mL throughout. The same molecule displayed a minimum inhibitory concentration (MIC) against Candida albicans [2] of 0.24 to 250 ng/mL.

As to `C#CCN(Cc1ccccc1[N+](=O)[O-])CC(O)(Cn1cncn1)c1ccc(F)cc1F` (stereo unspecified), the minimum inhibitory concentration (MIC) in the experiment with Trichophyton rubrum, against Kluyveromyces marxianus, with Candida tropicalis, against Cryptococcus neoformans [1], in the experiment with Candida parapsilosis and in the experiment on Aspergillus fumigatus was 0.24 to 250 ng/mL in each case. The molecule also registered a minimum inhibitory concentration (MIC) against Candida albicans [2] of 0.24 to 250 ng/mL.

Consider `C#CCN(Cc1ccccc1F)CC(O)(Cn1cncn1)c1ccc(F)cc1F` (stereo unspecified), for which the minimal inhibitory concentration (MIC) in the experiment on Trichophyton rubrum, against Kluyveromyces marxianus, against Candida tropicalis, against Cryptococcus neoformans [1], in the experiment on Candida parapsilosis and in the experiment on Aspergillus fumigatus was 0.24 to 250 ng/mL throughout. In addition, the minimal inhibitory concentration (MIC) against Candida albicans [2] lay within 0.24 to 250 ng/mL.

Regarding `C#CCN(Cc1cccc(C#N)c1)CC(O)(Cn1cncn1)c1ccc(F)cc1F` (stereo unspecified), the minimum inhibitory concentration (MIC) against Trichophyton rubrum, in the experiment on Kluyveromyces marxianus, in the experiment on Candida tropicalis, against Cryptococcus neoformans [1], against Candida parapsilosis and against Aspergillus fumigatus was 0.24 to 250 ng/mL in each case. In the experiment on Candida albicans [2], this molecule gave an MIC of 0.24 to 250 ng/mL.

`Cc1ccccc1-c1nnc(SCc2cn(CC(O)(Cn3cncn3)c3ccc(F)cc3F)nn2)o1` (stereo unspecified) had an MIC80 against Candida albicans [2] (Candida albicans) of 500 ng/mL (≈ 979 nM).

Regarding `Cc1cccc(-c2cn(CC(O)(Cn3cncn3)c3ccc(F)cc3F)nn2)c1` (stereo unspecified), the minimum inhibitory concentration (MIC) with Trichophyton rubrum (setting [5]) came out at 250 ng/mL (≈ 631 nM).

Take `CCCCCCc1cnn(Cn2cc(CC(O)(Cn3cncn3)c3ccc(F)cc3F)nn2)n1` (stereo unspecified): the figures for the MIC in the experiment on Cryptococcus neoformans [1] (setting [6]) and with Candida parapsilosis (setting [7]) were 0.15 ng/mL (≈ 0.318 nM) and 3 ng/mL (≈ 6.36 nM), respectively.

`C#CCN(Cc1ccc(Br)cc1)CC(O)(Cn1cncn1)c1ccc(F)cc1F` (stereo unspecified): the MIC in the experiment with Trichophyton rubrum, against Kluyveromyces marxianus, with Candida tropicalis, in the experiment with Cryptococcus neoformans [1], against Candida parapsilosis and in the experiment on Aspergillus fumigatus was 0.24 to 250 ng/mL in each case. The MIC in the experiment on Candida albicans [2] lay in the range of 0.24 to 250 ng/mL.

Take `O=C1S/C(=C\c2ccco2)C(=O)N1CC(O)(Cn1cncn1)c1ccc(F)cc1F` (stereo unspecified): the MIC80 against Cryptococcus neoformans [3] is 0.12 µM (≈ 0.0519 µg/mL); with Candida albicans [4], 0.03 to 0.15 µM (≈ 0.013 to 0.0649 µg/mL).

For `C#CCN(Cc1ccc(Cl)cc1)CC(O)(Cn1cncn1)c1ccc(F)cc1F` (stereo unspecified), the minimal inhibitory concentration (MIC) in the experiment on Trichophyton rubrum, in the experiment on Kluyveromyces marxianus, against Candida tropicalis, against Cryptococcus neoformans [1], with Candida parapsilosis and against Aspergillus fumigatus was 0.24 to 250 ng/mL throughout. The molecule also showed a minimum inhibitory concentration (MIC) in the experiment with Candida albicans [2] of 0.24 to 250 ng/mL.

Consider `CCN(Cc1cn(Cc2ccc(Cl)cc2)nn1)CC(O)(Cn1cncn1)c1ccc(F)cc1F` (stereo unspecified), for which the minimal inhibitory concentration (MIC) fell in the range of 3.9 to 62.5 ng/mL (≈ 7.99 to 128 nM) in the experiment with Trichophyton rubrum (setting [5]); 3.9 to 62.5 ng/mL (≈ 7.99 to 128 nM) in the experiment with Kluyveromyces marxianus (Kluyveromyces marxianus, read-out: MIC); 3.9 to 62.5 ng/mL (≈ 7.99 to 128 nM) in the experiment with Candida tropicalis (Candida tropicalis, read-out: MIC); 3.9 to 62.5 ng/mL (≈ 7.99 to 128 nM) with Cryptococcus neoformans [1] (setting [6]); 3.9 to 62.5 ng/mL (≈ 7.99 to 128 nM) in the experiment on Candida parapsilosis (setting [7]); 3.9 to 62.5 ng/mL (≈ 7.99 to 128 nM) in the experiment on Candida albicans [2] (Candida albicans, read-out: MIC).

In the experiment with Candida albicans [2] (Candida albicans), `CCCc1ccc(-c2nnc(SCc3cn(CC(O)(Cn4cncn4)c4ccc(F)cc4F)nn3)o2)cc1` (stereo unspecified) returned an MIC80 of 500 ng/mL (≈ 928 nM).
